Series [1] addresses T1, Acetylcholinesterase (AChE, E.C. 3.1.1.7, from human erythrocytes) (Homo sapiens, UniProt P22303).
T1 construct: Acetylcholinesterase (AChE, E.C. 3.1.1.7, from human erythrocytes); purchased Sigma-Aldrich (Steinheim, Germany); host or cells: human erythrocytes (natural source)
Kind of series: biochemical. To be noted: for Selectivity for AChE: IC50(BuChE)/IC50(AChE); for IC50: means ± SD of three independent experiments. The series is classed as biochemical. The method, then: (§1) The details were described previously.
(§2) Their potency was determined using the modified Ellman’s method and expressed as the half of maximal inhibitory concentration, IC50 [34].

The target of series [2] is T2, butyrylcholinesterase (BuChE, E.C. 3.1.1.8, from equine serum) (Equus caballus, UniProt P81908).
T2 construct: butyrylcholinesterase (BuChE, E.C. 3.1.1.8, from equine serum); purchased Sigma-Aldrich (Steinheim, Germany); host or cells: equine serum (natural source)
The series is described as follows: biochemical. The method, then: as §1, §2

Series [3] is described as follows: In vitro antioxidant activity assay (DPPH radical scavenging). To be noted: DPPH 100 μM in methanol, 37 °C, 30 min; means ± SD of three experiments; read-out: IC50(DPPH) radical scavenging effect. The method, then:
Antioxidant activity of each compound and standards (rutin) was assessed based on the radical scavenging effect of stable DPPH free radical. An amount of 10 μL of each tested compound or standard series of different concentrations (from 0.0 to 100 µM) was added to 9 mL of methanol solution of 2,2-diphenyl-1-picrylhydrazyl (DPPH) (100 μM). After incubation at 37 °C for 30 min, decrease in the absorbance of each solution was measured at 520 nm. The absorbance of the blank sample containing the same amount of DMSO and DPPH solution was also prepared and measured. All experiments were conducted in triplicate. The scavenging potential was compared with a solvent control (0% radical scavenging) and the standard compound. Radical scavenging activity (%AA) was calculated by the following formula: (%AA) = [(A0 − A1)/A0] × 100%(3) in which (A0) is the absorbance of the blank sample and (A1) is the absorbance of the tested compound (t = 30 min).
Reactive oxygen species are a causal factor in the process of aging and the cumulative damage has been associated with AD [45]. In this study, the DPPH radical scavenging activity of the newly synthesized compounds was estimated using the Brand-Williams method.
In general terms: Loss of DPPH colour is used to gauge radical scavenging.

Series [4] in a line: RP-18 HPLC chromatography lipophilicity estimation. The class given is physicochemical. To be noted: for −S (slope): methanol/acetate buffer pH 4.0; for log kw (intercept): methanol/acetate buffer pH 4.0, extrapolated to pure water. The method, then: The Eurosil Bioselect C18 (5 μm, 300 × 4.6 mm) column was used as the stationary phase. The mobile phase consisted of different volume mixtures of methanol and 20 mM acetate buffer as the aqueous phase to give pH 4.0. The organic modifier concentration ranged from 0.30 to 0.75, depending on the structure of the compound at 0.05 (0.1) intervals. The flow rate was 0.5 cm^3·min^−1 at room temperature. Measurements were made at 292 nm. The retention time of an unretained solute (t0) was determined by the injection of a small amount of acetone dissolved in water. […] This is described by the Soczewiński–Wachtmeister dependence: log k = log kw + S (% organic modifier)(1) in which log kw is the retention factor of a solute with pure water as the mobile phase (intercept) and S is the regression curve (slope). The log k values were calculated as log k = log (tR − t0)/t0, where tR is the retention time of a solute and t0 is the retention time of an unretained solute.
To find the structure–activity relationships, some quantities of the compounds were estimated (Table 5). They included the lipophilicity parameter log kw obtained by RP-HPLC and calculated in silico log P, the topological polar surface area (tPSA), and the molar refractivity (MR) (Table 5). The log kw and S parameters obtained by the extrapolation technique are commonly used as lipophilicity descriptors.

The target in series [5] is T3, Amyloid β-peptide (1–42) (Aβ42) (Homo sapiens, UniProt P05067).
T3 construct: Amyloid β-peptide, (1–42) (Aβ42), was purchased from Aldrich; purchased Aldrich
The series is described as follows: biochemical. As to conditions: ThT fluorescence, 24 h at 37 °C; means ± SD of three experiments; read-out: IC50(Aβ(1–42)) self-induced aggregation. How it is done: Amyloid β-peptide, (1–42) (Aβ42), was purchased from Aldrich. Aβ42 was diluted in the phosphate buffer (pH 8.0) to obtain a 125.8 µM solution. The compounds under study were first dissolved in a small amount of methanol, and then further diluted in the phosphate buffer to the final concentration of 5–160 μM. To study the Aβ42 aggregation inhibition, the fluorescence emission of thioflavin T (ThT) was followed with curcumin as the reference compound [35, 36]. At first, the Aβ42 (10 μL) samples and the tested compounds (10 μL) were diluted with the phosphate buffer (60 μL) and then they were incubated for 24 h at 37 °C without stirring. As for the control, a sample of the peptide was incubated without the inhibitor. The tests were carried out in black, flat-bottom, 96-well plates. Then 20 µL of 2.5 µM ThT in 50 mM glycine–NaOH (pH 8.5) was added and incubated for 5 min. Fluorescence was monitored with the excitation at 446 nm and the emission at 490 nm. A time scan of fluorescence was performed and the intensity values reached the plateau (300 s). […]. The reported values were obtained as the mean ± SD of triplicate of three independent experiments.
Nowadays, the amyloid hypothesis has become the dominating paradigm for understanding AD [44]. Aβ(1–42) is the most amyloidogenic Aβ fragment found in the AD plaques. […].

The subject of another series is AChE. To be noted: Figure 1; cited from earlier work.
Where [6] appears, read: means ± SD of three experiments, read-out: BuChE IC50.

The term IC50 denotes the midpoint of a concentration-inhibition curve.

Where two headings read alike, the source gives them in different places.

T2 sequence (P81908 whole entry): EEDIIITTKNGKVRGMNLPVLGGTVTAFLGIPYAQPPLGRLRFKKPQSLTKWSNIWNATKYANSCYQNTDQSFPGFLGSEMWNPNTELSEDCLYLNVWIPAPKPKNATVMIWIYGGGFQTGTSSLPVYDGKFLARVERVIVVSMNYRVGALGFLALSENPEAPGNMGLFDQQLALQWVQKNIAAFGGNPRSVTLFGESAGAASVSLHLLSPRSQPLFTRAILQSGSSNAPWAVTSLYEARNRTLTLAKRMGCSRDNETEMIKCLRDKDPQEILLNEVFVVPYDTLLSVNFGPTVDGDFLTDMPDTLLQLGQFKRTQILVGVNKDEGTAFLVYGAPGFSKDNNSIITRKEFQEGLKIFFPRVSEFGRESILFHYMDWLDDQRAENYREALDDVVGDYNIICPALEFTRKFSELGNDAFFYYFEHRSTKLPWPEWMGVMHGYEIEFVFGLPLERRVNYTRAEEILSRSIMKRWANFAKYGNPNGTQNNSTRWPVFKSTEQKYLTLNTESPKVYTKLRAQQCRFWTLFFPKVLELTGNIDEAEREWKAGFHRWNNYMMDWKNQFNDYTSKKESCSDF
T1 sequence (P22303 32-617 isoform P22303-2 limits assumed): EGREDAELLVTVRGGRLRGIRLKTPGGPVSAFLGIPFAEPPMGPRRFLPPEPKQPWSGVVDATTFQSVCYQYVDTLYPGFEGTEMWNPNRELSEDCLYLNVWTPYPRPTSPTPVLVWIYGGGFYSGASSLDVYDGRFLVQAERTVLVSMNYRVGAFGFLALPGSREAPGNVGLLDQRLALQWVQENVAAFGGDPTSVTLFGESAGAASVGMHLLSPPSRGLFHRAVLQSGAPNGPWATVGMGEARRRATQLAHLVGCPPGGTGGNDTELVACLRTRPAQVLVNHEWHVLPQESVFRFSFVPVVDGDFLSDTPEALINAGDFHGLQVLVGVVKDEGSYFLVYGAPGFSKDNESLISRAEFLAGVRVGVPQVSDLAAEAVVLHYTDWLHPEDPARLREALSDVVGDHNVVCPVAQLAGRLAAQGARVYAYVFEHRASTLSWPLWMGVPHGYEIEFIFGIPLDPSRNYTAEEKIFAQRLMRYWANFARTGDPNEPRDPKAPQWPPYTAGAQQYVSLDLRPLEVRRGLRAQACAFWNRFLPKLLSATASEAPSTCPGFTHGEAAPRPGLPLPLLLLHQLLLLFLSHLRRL
T3 sequence (P05067 672-713 limits assumed): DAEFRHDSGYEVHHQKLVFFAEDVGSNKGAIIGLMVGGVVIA

Regarding `Oc1cc(O)c(-c2nc3cc(Cl)c(Cl)cc3[nH]2)cc1Cl` [Compound 2, 4-(5,6-Dichloro-1H-benzimidazol-2-yl)-6-chlorobenzene-1,3-diol], the “Selectivity for AChE” value in series [1] is 41.9. Moreover, the IC50 in series [1] stood at 541 ± 36 nM; in series [2] (setting [6]), 22690 ± 78 nM; in series [3], 213 ± 80 nM. Also, the “−S (slope)” value in series [4] was 5.770. The “log kw (intercept)” value in series [4] is 5.460.

Regarding `Cc1c(O)ccc(-c2nc3ccc(C(F)(F)F)cc3[nH]2)c1O` [Compound 3, 4-[6-(Trifluoromethyl)-1H-benzimidazol-2-yl]-2-methylbenzene-1,3-diol], in series [1], the “Selectivity for AChE” value was determined as 143.1 and the IC50 amounted to 98 ± 5 nM. In series [2] (setting [6]), the IC50 came out at 14020 ± 111 nM. In addition, in series [4], the “−S (slope)” value is 6.299 and the “log kw (intercept)” value was 5.720.

`CCc1cc(-c2nc3cc(C(F)(F)F)cc(Cl)c3[nH]2)c(O)cc1O` [Compound 4, 4-(7-Chloro-5-(trifluoromethyl)-1H-benzimidazol-2-yl)-6-ethylbenzene-1,3-diol]: in series [1], the “Selectivity for AChE with respect to BuChE (in words)” value was “highly selective”, the “Selectivity for AChE” value is 390.0 and the IC50 was found to be 118 ± 9 nM. Moreover, the IC50 in series [2] (setting [6]) was 46030 ± 104 nM. In series [4], the “−S (slope)” value is given as 4.635 and the “log kw (intercept)” value is 4.237.

For `COc1ccc2nc(-c3cc(Cl)c(O)cc3O)[nH]c2c1` [Compound 6, 4-(6-Methoxy-1H-benzimidazol-2-yl)-6-chlorobenzene-1,3-diol], in series [1], the “Selectivity for AChE with respect to BuChE (in words)” value is “highly selective”, the “Selectivity for AChE” value was found to be 203.4 and half-maximal inhibition (IC50) required 92 ± 2 nM. Further, the IC50 in series [2] (setting [6]) was 18710 ± 173 nM. Moreover, the 50% inhibitory concentration (IC50) in series [5] turned out to be 27000 ± 2290 nM. For the same molecule, in series [3], the IC50 worked out at 362 ± 10 nM. In addition, in series [4], the “−S (slope)” value is listed as 5.390 and the “log kw (intercept)” value is 4.808.

As for `COc1ccc2nc(-c3ccc(O)c(O)c3O)[nH]c2c1` [Compound 7, 4-(6-Methoxy-1H-benzimidazol-2-yl)benzene-1,2,3-triol], in series [1], the “Activity against AChE (in words)” value is “inactive” and the IC50 was more than 500000 nM. Moreover, the IC50 in series [2] (setting [6]) is more than 500000 nM. Further, in series [4], the “−S (slope)” value is reported as 3.870 and the “log kw (intercept)” value is recorded as 3.589.

As to `CCOC(=O)c1ccc2[nH]c(-c3ccc(O)c(C)c3O)nc2c1` [Compound 8, Ethyl 2-(2,4-dihydroxy-3-methylphenyl)-1H-benzimidazole-5-carboxylate], in series [1], the “Selectivity for AChE” value is given as 137.8 and the IC50 came out at 184 ± 22 nM. The IC50 in series [2] (setting [6]) is 25350 ± 232 nM. Moreover, the IC50 in series [3] came to 125 ± 60 nM. In addition, in series [4], the “−S (slope)” value is 4.097 and the “log kw (intercept)” value is listed as 2.566.

Turning to `CCOC(=O)c1ccc2[nH]c(-c3cc(CC)c(O)cc3O)nc2c1` [Compound 9, Ethyl 2-(5-ethyl-2,4-dihydroxyphenyl)-1H-benzimidazole-5-carboxylate], in series [1], the “Selectivity for AChE” value is given as 45.6 and the half-inhibitory concentration (IC50) came to 962 ± 23 nM. Moreover, in series [2] (setting [6]), the IC50 was found to be 43860 ± 381 nM. For the same molecule, in series [4], the “−S (slope)” value is 4.160 and the “log kw (intercept)” value is listed as 3.067.

With `CCOC(=O)c1ccc2[nH]c(-c3c(O)cc(O)cc3O)nc2c1` [Compound 10, Ethyl 2-(2,4,6-trihydroxyphenyl)-1H-benzimidazole-5-carboxylate], in series [1], the “Activity against AChE (in words)” value is “inactive” and the IC50 is more than 500000 nM. Besides, in series [2] (setting [6]), the IC50 is more than 500000 nM. In series [4], the “−S (slope)” value was 3.237 and the “log kw (intercept)” value was 2.088.

`Cc1c(O)ccc(-c2nc3ccc(C#N)cc3[nH]2)c1O` [Compound 11, 2-(2,4-Dihydroxy-3-methylphenyl)-1H-benzimidazole-6-carbonitrile] came in with an IC50 in series [1] of more than 500000 nM. For the same molecule, the IC50 in series [2] (setting [6]) is more than 500000 nM. In series [4], the “−S (slope)” value is recorded as 3.867 and the “log kw (intercept)” value is 3.590.

As to `CCc1cc(-c2nc3ccc(C#N)cc3[nH]2)c(O)cc1O` [Compound 12, 2-(5-Ethyl-2,4-dihydroxyphenyl)-1H-benzimidazole-6-carbonitrile], the IC50 in series [1] was more than 500000 nM; in series [2] (setting [6]), more than 500000 nM; in series [3] it was 209 ± 20 nM. Besides, the “−S (slope)” value in series [4] was 4.854. In addition, the “log kw (intercept)” value in series [4] is 3.360.

`O=[N+]([O-])c1ccc2nc(-c3ccc(O)cc3O)[nH]c2c1` [Compound 13, 4-(6-Nitro-1H-benzimidazol-2-yl)benzene-1,3-diol]: in series [1], the “Selectivity for AChE” value turned out to be 71.7 and the IC50 came out at 1490 ± 118 nM. In addition, the IC50 in series [2] (setting [6]) is 106600 ± 201 nM. For the same molecule, in series [4], the “−S (slope)” value was 4.655 and the “log kw (intercept)” value was 2.475.

For `Cc1c(O)ccc(-c2nc3ccc([N+](=O)[O-])cc3[nH]2)c1O` [Compound 14, 2-Methyl-4-(6-nitro-1H-benzimidazol-2-yl)benzene-1,3-diol], in series [1], the “Selectivity for AChE” value was 88.1 and it took 1000 ± 196 nM to reach half-maximal inhibition (IC50). The IC50 in series [2] (setting [6]) was 88360 ± 155 nM. For the same molecule, in series [4], the “−S (slope)” value is recorded as 4.596 and the “log kw (intercept)” value is recorded as 2.674.

For the molecule `Oc1ccc(-c2nc3ccccc3[nH]2)c(O)c1` [bib-1,3-diol, 4-(1H-benzimidazol-2-yl)benzene-1,3-diol, reference compound], in series [1], the “Selectivity for AChE” value was determined as 109.2 and half-maximal inhibition (IC50) was put at 284 ± 14 nM. Also, in series [2] (setting [6]), the 50% inhibitory concentration (IC50) worked out at 31020 ± 133 nM. Also, in series [4], the “−S (slope)” value is reported as 2.979 and the “log kw (intercept)” value was 1.732.

On to `Clc1ccc2[nH]c(-c3ccc(OCCN4CCCCC4)cc3)nc2c1` [compound a], for which the IC50 with AChE was 130 nM.

With `CCN(CC)Cc1cc(-c2nc3cc([N+](=O)[O-])ccc3[nH]2)ccc1O` [compound b], the concentration for half-maximal inhibition (IC50) in the series on AChE was 930 nM.

On to `CN1c2c(nn(-c3ccc(-c4nc5ccccc5[nH]4)cc3)c2-c2ccccc2)-c2ccccc2S1(=O)=O` [compound f], for which the half-inhibitory concentration (IC50) in the series with AChE was 11 nM.

Turning to `O=C1c2ccccc2C(=O)N1CCCn1c[n+](Cc2cccc3ccccc23)c2ccccc21` [d], in the series on AChE, the IC50 was 56 nM.

Turning to `C=Cc1ccc(C[n+]2cn(C)c3ccccc32)cc1` [e], in the series on AChE, the IC50 is 45 nM.

Regarding `CN(C)C(=O)Oc1cccc([N+](C)(C)C)c1` [neostigmine, reference compound], the IC50 in series [2] came to 68 ± 5 nM.

Turning to `C[C@@H]1O[C@@H](OC[C@H]2O[C@@H](Oc3c(-c4ccc(O)c(O)c4)oc4cc(O)cc(O)c4c3=O)[C@H](O)[C@@H](O)[C@@H]2O)[C@H](O)[C@H](O)[C@H]1O` [rutin, reference compound], in series [3], the IC50 stood at 87 ± 40 nM.

The values are drawn from publication PMC6995558, “Biological Evaluation, Molecular Docking, and SAR Studies of Novel 2-(2,4-Dihydroxyphenyl)-1H- Benzimidazole Analogues” (Biomolecules, 2019).
